From ChEMBL document CHEMBL5346946, “Targeting Arginine Methyltransferase PRMT5 for Cancer Therapy: Updated Progress and Novel Strategies” (J Med Chem, 2023)
One block for each molecule: values may come before it.

Columns and labels:
[1] = molecular target: Voltage-gated inwardly rectifying potassium channel KCNH2 (Homo sapiens, UniProt Q12809); assay: Inhibition of hERG potassium channel in human HEK293 cells by manual patch clamp assay; format: toxicity, cell-based
[2] = Anti-proliferative activity against human HCT116-MTAP null cells assessed as cell growth inhibition incubated overnight by CellTiter-Glo luminescent assay; format: functional, cell-based
[3] = Anti-proliferative activity against human HCT116-MTAP null cells assessed as cell growth inhibition incubated for 6 days by CellTiter-Glo Luminescent Cell Viability Assay; format: functional, cell-based; conditions: 144 h
PRMT5/MEP50 complex [4] = molecular target: T1, PRMT5/MEP50 complex (Homo sapiens, UniProt O14744); assay: Binding affinity to PRMT5/MEP50 (unknown origin) using histone H4 peptide assessed as inhibition constant preincubated for 24 hrs followed by substrate addition and measured for 2 hrs in the presence of SAM by MTase-Glo Methyl Transferase Assay; format: protein-complex assay
HCT-116 = assay: Anti-proliferative activity against wild type human HCT-116 cells assessed as cell growth inhibition incubated overnight by CellTiter-Glo luminescent assay; format: functional, cell-based
NCI-H358 = assay: Antiproliferative activity against human NCI-H358 assessed as cell growth inhibition measured after 7 days by CCK-8 assay; format: functional, cell-based; conditions: NCI-H358, 168 h
Z-138 [5] = assay: Antiproliferative activity against human Z138 cells assessed as cell growth inhibition measured after 7 days by CCK-8 assay; format: functional, cell-based; conditions: Z-138, 168 h
MDA-MB-468 = assay: Antiproliferative activity against human MDA-MB-468 assessed as cell growth inhibition measured after 7 days by CCK-8 assay; format: functional, cell-based; conditions: MDA-MB-468, 168 h
U-87 MG = assay: Anti-proliferative activity against human U-87 MG cells assessed as cell growth inhibition incubated for 3 days by CCK-8 assay; format: functional, cell-based, U-87MG ATCC; conditions: 72 h
PRMT5/MEP50 complex [6] = molecular target: T1, PRMT5/MEP50 complex; assay: Inhibition of PRMT5/MEP50 (unknown origin) using histone H4 peptide as substrate preincubated for 30 mins followed by substrate addition and measured for 60 mins by AlphaScreen analysis; format: protein-complex assay
Z-138 [7] = assay: Anti-proliferative activity against human Z138 cells assessed as cell growth inhibition incubated for 8 days by Cell-Titer Glo assay; format: functional, cell-based; conditions: Z-138, 192 h
[8] = Oral bioavailability in CB17-SCID mouse at 10 mg/kg incubated for 24 hrs by LC-MS/MS analysis; format: ADME, organism-based; conditions: in vivo
Z-138 [9] = assay: Antitumor activity against human Z138 cells xenografted in CB17-SCID mouse at 50 mg/kg, po QD for 3 weeks relative to control; format: functional; conditions: Z-138, 504 h, read-out: TGI
[10] = molecular target: T2, Protein arginine N-methyltransferase 5 (Homo sapiens, UniProt O14744); assay: Inhibition of PRMT5 in human Z138 cells assessed as decrease in sDMA modification incubated for 2 days by fluorescence based assay; format: cell-based
A-427 [11] = assay: Antitumor activity in human A-427 harboring RBM10 I348N mutant xenografted in mouse model assessed as tumor growth inhibition at 30 mg/kg administered once daily and measured after 44 days relative to control; format: functional; conditions: A-427, 1056 h, time 44 day, read-out: TGI
A-427 [12] = assay: Antitumor activity in human A-427 harboring RBM10 I348N mutant xenografted in mouse model assessed as tumor growth inhibition at 10 mg/kg administered once daily and measured after 44 days relative to control; format: functional; conditions: A-427, 1056 h, time 44 day, read-out: TGI
[13] = Volume of distribution at steady state in rat at 2 mg/kg, iv; format: ADME, organism-based; conditions: in vivo, read-out: Vdss
PRMT5/MEP50 complex [14] = molecular target: T1, PRMT5/MEP50 complex; assay: Binding affinity to N-terminal 6xHis-tagged full length human PRMT5/MEP50 expressed in sf21 cells using S-Adenosyl-L-methionine as substrate assessed as dissociation constant incubated for 25 to 60 mins by liquid scintillation analysis
[15] = Clearance in rat; format: ADME; conditions: in vivo
A-427 [16] = assay: Antitumor activity in human A-427 harboring RBM10 I348N mutant xenografted in mouse model assessed as tumor growth inhibition at 3 mg/kg administered once daily and measured after 44 days relative to control; format: functional; conditions: A-427, 1056 h, time 44 day, read-out: TGI
[17] = Oral bioavailability in rat at 10 mg/kg; format: ADME, organism-based; conditions: in vivo
[18] = In vivo inhibition of PMRT5 in mouse xenografted with human A427 cells assessed as reduction in sDMA level by ELISA (reference value: 66.4%); format: functional, A-427
[19] = molecular target: T2, Protein arginine N-methyltransferase 5; assay: Inhibition of PRMT5 in human A427 cells assessed as reduction in sDMA level incubated for 72 hrs by liquid scintillation analysis
NCI-H1048 [20] = assay: Antiproliferative activity against human NCI-H1048 cells assessed as cell growth inhibition incubated for 6 days by MTT assay; format: functional; conditions: NCI-H1048, 144 h, time 6 day
[21] = molecular target: PRMT5/MEP50 complex (Homo sapiens) (UniProt O14744+Q9BQA1); assay: Binding affinity to Full-length human PRMT5/human MEP50 assessed as association constant by SPR analysis; format: protein-complex assay
NCI-H1048 [22] = assay: Antitumor activity against human NCI-H1048 cells xenografted in mouse assessed as tumor growth inhibition at 10 mg/kg, po administered daily for 28 days with two cycles of 7 days of treatment followed by 7 days without treatment relative to control; format: functional; conditions: NCI-H1048, 672 h, time 28 day, read-out: TGI
[23] = molecular target: T2, Protein arginine N-methyltransferase 5; assay: Inhibition of PRMT5 in human NCI-H1048 cells assessed as reduction in dimethylation of SmD1/3 at 10 nM incubated for 48 hrs relative to control; format: cell-based
NCI-H1048 [24] = assay: Antitumor activity against human NCI-H1048 cells xenografted in mouse assessed as tumor growth inhibition at 10 mg/kg, po administered daily for 28 days relative to control; format: functional; conditions: NCI-H1048, 672 h, time 28 day, read-out: TGI
[25] = molecular target: T2, Protein arginine N-methyltransferase 5; assay: Inhibition of PRMT5 in human NCI-H1048 cells assessed as reduction in dimethylation of SmD1/3 at 1 nM incubated for 48 hrs relative to control; format: cell-based
[26] = molecular target: T2, Protein arginine N-methyltransferase 5; assay: Inhibition of PRMT5 in human U-87 MG cells assessed as suppression of sDMA level incubated for 3 days by western blot analysis; format: cell-based
Z-138 [27] = assay: Antitumor activity against human Z138 cells xenografted in mouse as tumor growth inhibition at 1.5 mg/kg, po administered twice daily relative to control; format: functional; conditions: read-out: TGI
Z-138 [28] = assay: Antiproliferative activity against human Z138 cells; format: functional, cell-based
[29] = molecular target: T2, Protein arginine N-methyltransferase 5; assay: Inhibition of PRMT5 (unknown origin)
Z-138 [30] = assay: Antitumor activity against human Z138 cells xenografted in mouse as tumor growth inhibition at 15 mg/kg, po administered twice daily relative to control; format: functional; conditions: read-out: TGI
[31] = molecular target: T2, Protein arginine N-methyltransferase 5; assay: Inhibition of PRMT5 in human Z138 cells assessed as suppression of sDMA level; format: cell-based
Z-138 [32] = assay: Antitumor activity against human Z138 cells xenografted in mouse as tumor growth inhibition at 5 mg/kg, po administered twice daily relative to control; format: functional; conditions: read-out: TGI

T2 sequence (O14744 whole entry): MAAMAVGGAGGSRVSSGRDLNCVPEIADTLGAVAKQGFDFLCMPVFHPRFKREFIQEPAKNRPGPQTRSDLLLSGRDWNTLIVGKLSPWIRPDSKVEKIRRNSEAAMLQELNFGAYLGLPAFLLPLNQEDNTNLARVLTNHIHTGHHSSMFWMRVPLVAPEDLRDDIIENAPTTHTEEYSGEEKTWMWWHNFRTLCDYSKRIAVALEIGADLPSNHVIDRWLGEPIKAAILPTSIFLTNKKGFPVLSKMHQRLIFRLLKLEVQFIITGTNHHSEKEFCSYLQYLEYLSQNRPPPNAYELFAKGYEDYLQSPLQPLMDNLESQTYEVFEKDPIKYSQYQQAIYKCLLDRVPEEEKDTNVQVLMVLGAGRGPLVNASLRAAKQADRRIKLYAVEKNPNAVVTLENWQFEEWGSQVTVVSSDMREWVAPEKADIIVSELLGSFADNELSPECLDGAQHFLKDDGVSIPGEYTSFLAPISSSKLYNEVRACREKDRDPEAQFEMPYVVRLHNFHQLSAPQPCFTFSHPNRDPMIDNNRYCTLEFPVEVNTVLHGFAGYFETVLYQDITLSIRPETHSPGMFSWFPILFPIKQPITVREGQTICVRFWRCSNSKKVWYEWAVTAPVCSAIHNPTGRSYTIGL
T1 sequence (O14744 whole entry): as above
T1 sequence (Q9BQA1 whole entry, further chain): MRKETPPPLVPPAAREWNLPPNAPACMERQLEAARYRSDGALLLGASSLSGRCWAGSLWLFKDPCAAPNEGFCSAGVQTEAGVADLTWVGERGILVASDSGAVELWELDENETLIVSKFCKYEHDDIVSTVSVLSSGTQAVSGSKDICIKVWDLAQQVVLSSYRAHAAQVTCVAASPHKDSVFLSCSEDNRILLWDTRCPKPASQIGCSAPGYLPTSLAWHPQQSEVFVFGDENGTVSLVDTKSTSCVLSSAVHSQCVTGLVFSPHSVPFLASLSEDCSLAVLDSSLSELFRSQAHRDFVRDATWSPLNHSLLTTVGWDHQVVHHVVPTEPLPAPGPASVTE
Voltage-gated inwardly rectifying potassium channel KCNH2, sequence (Q12809 whole entry): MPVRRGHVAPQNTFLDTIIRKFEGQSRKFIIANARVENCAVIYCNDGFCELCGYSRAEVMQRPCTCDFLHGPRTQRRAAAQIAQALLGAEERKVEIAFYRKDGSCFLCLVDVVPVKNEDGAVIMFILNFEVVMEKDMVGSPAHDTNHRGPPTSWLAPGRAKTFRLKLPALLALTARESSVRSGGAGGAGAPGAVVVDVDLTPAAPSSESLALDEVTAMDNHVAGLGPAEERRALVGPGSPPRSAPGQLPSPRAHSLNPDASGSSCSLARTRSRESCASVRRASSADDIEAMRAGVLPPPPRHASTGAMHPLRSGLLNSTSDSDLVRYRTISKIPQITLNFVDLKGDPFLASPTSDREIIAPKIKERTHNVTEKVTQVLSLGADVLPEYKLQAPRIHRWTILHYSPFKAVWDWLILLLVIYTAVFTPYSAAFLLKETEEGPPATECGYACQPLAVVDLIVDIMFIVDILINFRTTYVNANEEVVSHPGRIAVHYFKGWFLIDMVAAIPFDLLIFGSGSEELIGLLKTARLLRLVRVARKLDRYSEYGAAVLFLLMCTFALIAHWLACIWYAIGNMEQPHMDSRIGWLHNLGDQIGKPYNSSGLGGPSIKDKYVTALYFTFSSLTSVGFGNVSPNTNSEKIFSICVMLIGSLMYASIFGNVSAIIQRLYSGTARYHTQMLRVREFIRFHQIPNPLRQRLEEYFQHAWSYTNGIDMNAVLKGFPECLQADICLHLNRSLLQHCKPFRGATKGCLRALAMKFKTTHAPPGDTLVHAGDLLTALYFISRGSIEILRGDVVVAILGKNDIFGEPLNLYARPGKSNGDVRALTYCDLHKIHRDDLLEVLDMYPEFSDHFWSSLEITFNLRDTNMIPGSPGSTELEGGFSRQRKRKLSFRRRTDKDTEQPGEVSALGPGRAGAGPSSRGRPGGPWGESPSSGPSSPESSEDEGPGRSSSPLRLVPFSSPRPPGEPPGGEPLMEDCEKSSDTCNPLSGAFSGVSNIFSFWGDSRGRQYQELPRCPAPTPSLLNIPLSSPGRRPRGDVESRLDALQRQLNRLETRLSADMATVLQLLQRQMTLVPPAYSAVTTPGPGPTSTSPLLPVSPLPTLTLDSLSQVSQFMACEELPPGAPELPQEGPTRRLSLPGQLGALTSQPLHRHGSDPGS

SMILES: CC(=O)N1CCC(Nc2cc3c(cn2)C2(CC2)CN(C[C@H](O)CN2CCc4ccccc4C2)C3=O)CC1
IC50 [1]: 5200 nM

SMILES: CC(=O)N1CC2(CC(Nc3cc4c(cn3)C3(CC3)CN(C[C@H](O)CN3CCc5ccccc5C3)C4=O)C2)C1
IC50 (NCI-H358): 5 nM | IC50 [1]: 15100 nM | IC50 (Z-138 [5]): 2.2 nM | IC50 (MDA-MB-468): 7.4 nM

SMILES: Nc1ncnc2c1ccn2[C@@H]1O[C@H]([C@H](O)c2ccc(Cl)c(F)c2)[C@@H](O)[C@H]1O
Kd (PRMT5/MEP50 complex [14]): 0.241 nM

SMILES: Nc1ncnc2c1ccn2[C@@H]1O[C@H]([C@@H]2OCc3cc(Cl)ccc32)[C@@H](O)[C@H]1O
IC50 [26]: 120 nM

SMILES: CCN1CCN(C[C@@H](O)[C@@H]2Cc3ccccc3CN2)C(=O)c2ccc(C(=O)N3CCC4(CC3)CC(OC)C4)cc21
inhibition in vivo at 1.5 mg/kg (Z-138 [27]): 36% | IC50 (Z-138 [28]): 2.2 nM | IC50 [29]: 4.2 nM | inhibition in vivo at 15 mg/kg (Z-138 [30]): 112% | IC50 [31]: 1.4 nM | inhibition in vivo at 5 mg/kg (Z-138 [32]): 47.8%

Continued, in another order:

Ki (PRMT5/MEP50 complex [4]): 0.05 nM | IC50 (HCT-116): 142 nM
SMILES: Cc1cc2cc(C(=O)N(Cc3ccc(C(F)(F)F)cn3)[C@@H]3CCCc4[nH]ncc43)ccc2nc1N
IC50 [2]: 10 nM | IC50 [3]: 5 nM

IC50 (U-87 MG): 2.6 nM
SMILES: Nc1ncnc2c1ccn2[C@@H]1O[C@H]([C@@H]2OCCc3cc(Cl)ccc32)[C@@H](O)[C@H]1O

IC50 (PRMT5/MEP50 complex [6]): 2.8 nM | bioavailability [8]: 46.2% | IC50 [10]: 0.8 nM
SMILES: CC1(C)CN(C[C@@H](O)[C@@H]2Cc3ccccc3CN2)C(=O)c2ccc(C(=O)N3CCC4(CC3)CC4)cc21
IC50 (Z-138 [7]): 0.3 nM | inhibition in vivo at 50 mg/kg (Z-138 [9]): 93.2%

Vd [13]: 3.8 L/kg | Kd (PRMT5/MEP50 complex [14]): 0.0114 nM | clearance [15]: 40 mL/min/kg | bioavailability [17]: 40% | IC50 [19]: 1.1 nM
SMILES: Cc1ncnc2c1ccn2[C@@H]1C[C@H](Oc2cc(C(F)F)c(F)c3c2CNCC3)[C@@H](O)[C@H]1O
inhibition in vivo at 30 mg/kg (A-427 [11]): 101% | inhibition in vivo at 10 mg/kg (A-427 [12]): 74.9% | inhibition in vivo at 3 mg/kg (A-427 [16]): 52.1% | inhibition (INH) [18]: 79.8%

GI50 (NCI-H1048 [20]): 1.3 nM | Ka [21]: 6.3 10^5/M/s | inhibition [23]: 80% | inhibition [25]: > 50%
SMILES: Nc1nc2cc(CC[C@H]3C[C@@H](n4ccc5c(N)ncnc54)[C@H](O)[C@@H]3O)ccc2cc1Br [ONAMETOSTAT]
inhibition in vivo at 10 mg/kg (NCI-H1048 [22]): 67% | inhibition in vivo at 10 mg/kg (NCI-H1048 [24]): 77%
